Source: ChEMBL document CHEMBL3734724, “Anticancer efficacy of unique pyridine-based tetraindoles” (Eur J Med Chem, 2015)
pIC50: −log10 of the molar value. The source made the active and inactive calls. No cut-off for these calls is given here.

How the values were obtained:
MDA-MB-231 [1] = experiment: Reduction of phospho-cdc2 (Tyr15) dephosphorylation in human MDA-MB-231 cells after 48 hrs by Western blot analysis; type: functional, cell-based
MDA-MB-231 [2] = experiment: Antitumor activity against luciferase-expressing human MDA-MB-231 cells xenografted in nude mouse assessed as tumor growth inhibition at 10 mg/kg, ip administered every other day measured on day 54 relative to vehicle-treated control; type: functional; details: MDA-MB-231, ip, 1296 h, read-out: TGI
MDA-MB-231 [3] = experiment: Induction of DNA damage in human MDA-MB-231 cells after 48 hrs by alkaline comet assay; type: functional, cell-based
MDA-MB-231 [4] = experiment: Cell cycle arrest in human MDA-MB-231 cells assessed as accumulation at S phase at 1.6 uM after 24 hrs by propidium iodide staining-based flow cytometric analysis (reference value: 32 +/- 4%); type: functional
MDA-MB-231 [5] = experiment: Cell cycle arrest in human MDA-MB-231 cells assessed as accumulation at sub-G1 phase at 1.6 uM after 48 hrs by propidium iodide staining-based flow cytometric analysis relative to control; type: functional
MDA-MB-231 [6] = experiment: Cell cycle arrest in human MDA-MB-231 cells assessed as accumulation at sub-G1 phase at 0.4 uM after 48 hrs by propidium iodide staining-based flow cytometric analysis relative to control; type: functional
[7] = Cytotoxicity against human M10 cells assessed as growth inhibition after 48 hrs by MTT assay; type: cell-based; details: M10, 48 h
MDA-MB-231 [8] = experiment: Induction of DNA damage in human MDA-MB-231 cells at 3.2 uM after 48 hrs by alkaline comet assay relative to control; type: functional
MDA-MB-231 [9] = experiment: Cell cycle arrest in human MDA-MB-231 cells assessed as accumulation at S phase at 1.6 uM after 48 hrs by propidium iodide staining-based flow cytometric analysis (reference value: 26 +/- 3%); type: functional
MDA-MB-231 [10] = experiment: Cell cycle arrest in human MDA-MB-231 cells assessed as accumulation at G0/G1 phase at 1.6 uM after 24 hrs by propidium iodide staining-based flow cytometric analysis (reference value: 57 +/- 6%); type: functional
MDA-MB-231 [11] = experiment: Cell cycle arrest in human MDA-MB-231 cells assessed as accumulation at G2/M phase at 0.8 uM after 48 hrs by propidium iodide staining-based flow cytometric analysis (reference value: 16 +/- 3%); type: functional
MDA-MB-231 [12] = experiment: Cell cycle arrest in human MDA-MB-231 cells assessed as accumulation at G0/G1 phase at 0.8 uM after 48 hrs by propidium iodide staining-based flow cytometric analysis (reference value: 57.8 +/- 0.7%); type: functional
MCF7 = experiment: Cytotoxicity against human MCF7 cells assessed as growth inhibition after 48 hrs by MTT assay; type: functional, cell-based; details: MCF7, 48 h
MDA-MB-231 [13] = experiment: Upregulation of cyclin B1 protein expression in human MDA-MB-231 cells at 0.4 to 3.2 uM after 48 hrs by Western blot analysis relative to control; type: functional, cell-based

For `Oc1ccc2[nH]cc(C(c3ccc(C(c4c[nH]c5ccc(O)cc45)c4c[nH]c5ccc(O)cc45)nc3)c3c[nH]c4ccc(O)cc34)c2c1`, the Activity (MDA-MB-231 [1]) was “Dose-dependent effect”, the inhibition in vivo at 10 mg/kg (MDA-MB-231 [2]) was 58% and the Activity (MDA-MB-231 [3]) was “Dose-dependent effect”. For the same compound, the Activity (MDA-MB-231 [4]) was 27%, the Activity (MDA-MB-231 [5]) was 23% and the Activity (MDA-MB-231 [6]) was 1.3%. For the same compound, the pIC50 [7] was under 4.70, the “fold change (FC)” value (MDA-MB-231 [8]) was 12 and the Activity (MDA-MB-231 [9]) was 32%. For the same compound, the Activity (MDA-MB-231 [10]) was 53%, the Activity (MDA-MB-231 [11]) was 22% and the Activity (MDA-MB-231 [12]) was 49%. The pIC50 (MCF7) was 4.85 and the Activity (MDA-MB-231 [13]) was “Active”.
